Results as given in patent US20210255193A1, “LYSINE REACTIVE PROBES AND USES THEREOF” (The Scripps Research Institute, priority 2017, published 2021).

How the values were obtained:
[1] = target: T1, PTRF Polymerase I and transcript release factor (Homo sapiens, UniProt Q6NZI2); assay: competitive isoTOP-ABPP; format: binding; conditions: for isoTOP-ABPP ratio (R) at liganded lysine Q6NZI2_K326: sol, 231
T1 construct: isoTOP-ABPP experiments performed in cell lysates (in vitro); endogenous in cells; host or cells: soluble proteome of human cancer cell lines (MDA-MB-231; Ramos and Jurkat also prepared)
T1 sequence (Q6NZI2 1-390): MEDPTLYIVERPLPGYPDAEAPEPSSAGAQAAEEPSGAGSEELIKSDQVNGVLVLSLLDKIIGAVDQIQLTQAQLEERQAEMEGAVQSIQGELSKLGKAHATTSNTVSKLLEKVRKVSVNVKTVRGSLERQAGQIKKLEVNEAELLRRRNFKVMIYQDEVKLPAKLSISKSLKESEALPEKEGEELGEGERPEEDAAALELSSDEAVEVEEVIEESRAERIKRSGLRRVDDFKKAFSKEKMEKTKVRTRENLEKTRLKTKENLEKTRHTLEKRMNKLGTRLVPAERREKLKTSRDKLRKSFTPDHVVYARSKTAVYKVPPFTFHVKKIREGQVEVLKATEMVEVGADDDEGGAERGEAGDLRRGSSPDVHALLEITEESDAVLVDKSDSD
Summary of the method: (§1)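 Fragments at 50 μM (activated esters) or 100 μM (guanidinylating agents) were incubated with 0.5 ml lysate before probe labeling. After 0.1 mM STP-alkyne for 1 h, samples were clicked to isotopically distinct TEV tags, and R taken as DMSO-over-compound MS1 peak-area ratio.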

[2] = target: T2, MTHFD1 C-1-tetrahydrofolate synthase, cytoplasmic (Homo sapiens, UniProt P11586); assay: competitive isoTOP-ABPP; format: binding; conditions: for isoTOP-ABPP ratio (R) at liganded lysine P11586_K760 / isoTOP-ABPP reactivity ratio at lysine P11586_K760: 50 uM, in vitro; for isoTOP-ABPP ratio (R) at liganded lysine P11586_K760: sol, 231; for isoTOP-ABPP reactivity ratio at lysine P11586_K760: 231 sol
T2 construct: isoTOP-ABPP experiments performed in cell lysates (in vitro); endogenous in cells; host or cells: MDA-MB-231 soluble lysate
T2 sequence (P11586 1-935): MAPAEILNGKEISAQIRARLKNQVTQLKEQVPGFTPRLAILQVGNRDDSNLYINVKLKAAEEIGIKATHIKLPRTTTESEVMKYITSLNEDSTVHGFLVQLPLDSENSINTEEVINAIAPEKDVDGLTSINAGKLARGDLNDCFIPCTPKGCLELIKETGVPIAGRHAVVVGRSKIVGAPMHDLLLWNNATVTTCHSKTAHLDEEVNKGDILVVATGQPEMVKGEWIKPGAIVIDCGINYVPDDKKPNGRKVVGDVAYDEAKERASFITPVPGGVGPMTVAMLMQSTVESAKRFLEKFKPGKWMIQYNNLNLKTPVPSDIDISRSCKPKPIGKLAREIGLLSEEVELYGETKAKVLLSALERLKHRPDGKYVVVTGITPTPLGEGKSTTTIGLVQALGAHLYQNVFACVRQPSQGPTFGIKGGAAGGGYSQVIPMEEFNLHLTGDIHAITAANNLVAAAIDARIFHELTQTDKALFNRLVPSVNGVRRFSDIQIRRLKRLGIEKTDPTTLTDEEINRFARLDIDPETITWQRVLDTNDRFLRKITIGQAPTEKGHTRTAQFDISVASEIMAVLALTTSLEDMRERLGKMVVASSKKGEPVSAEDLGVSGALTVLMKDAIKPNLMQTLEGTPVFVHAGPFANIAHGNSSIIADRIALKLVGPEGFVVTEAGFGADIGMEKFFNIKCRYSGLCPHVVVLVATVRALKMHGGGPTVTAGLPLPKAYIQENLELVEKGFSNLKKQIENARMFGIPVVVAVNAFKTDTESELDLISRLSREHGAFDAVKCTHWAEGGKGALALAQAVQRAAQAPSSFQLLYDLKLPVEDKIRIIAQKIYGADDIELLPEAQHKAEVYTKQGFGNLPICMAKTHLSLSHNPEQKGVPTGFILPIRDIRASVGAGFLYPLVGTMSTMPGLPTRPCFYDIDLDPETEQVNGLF
Summary of the method: as §1

O=C(Oc1ccc([N+](=O)[O-])cc1[N+](=O)[O-])c1ccccc1Nc1cccc(C(F)(F)F)c1 [fragment 40, 2,4-Dinitrophenyl 2-((3-(trifluoromethyl)phenyl)amino)benzoate]
isoTOP-ABPP ratio (R) at liganded lysine Q6NZI2_K326 ([1]; 50 uM, in vitro): 20.0

Cn1cc(CC(=O)Oc2c(F)c(F)c(F)c(F)c2F)c2ccccc21 [fragment 22, Pentafluorophenyl 2-(1-methyl-1H-indol-3-yl)acetate]
R value (DMSO/fragment) for probe 1 labeling ([1]; Q6NZI2_K326, 50 uM, 231 sol, in vitro): 20.0

O=C(CC12CC3CC(CC(C3)C1)C2)Oc1ccc([N+](=O)[O-])cc1[N+](=O)[O-] [fragment 38, 2,4-Dinitrophenyl 2-(adamantan-1-yl)acetate]
isoTOP-ABPP ratio (R) at liganded lysine P11586_K760 [2]: 1.3

O=C(Oc1ccc([N+](=O)[O-])cc1[N+](=O)[O-])C(c1ccccc1)c1ccccc1 [fragment 30, 2,4-Dinitrophenyl 2,2-diphenylacetate]
isoTOP-ABPP reactivity ratio at lysine P11586_K760 [2]: 0.9

O=C(Oc1ccc([N+](=O)[O-])cc1[N+](=O)[O-])c1cc(C(F)(F)F)cc(C(F)(F)F)c1 [fragment 31, 2,4-Dinitrophenyl 3,5-bis(trifluoromethyl)benzoate]
isoTOP-ABPP reactivity ratio at lysine P11586_K760 [2]: 0.8

O=C(CCc1cn(-c2ccccc2)nc1-c1ccccc1)Oc1ccc([N+](=O)[O-])cc1[N+](=O)[O-] [fragment 29, 2,4-Dinitrophenyl 3-(1,3-diphenyl-1H-pyrazol-4-yl)propanoate]
isoTOP-ABPP reactivity ratio at lysine Q6NZI2_K326 ([1]; 50 uM, 231 sol, in vitro): 20.0

CC(C)(C)OC(=O)N=C(NC(=O)OC(C)(C)C)n1cccn1 [fragment 50, reference compound]
isoTOP-ABPP ratio, lysine P11586_K760 ([2]; 100 uM_231_sol_in vitro): 0.6

O=C(Oc1ccc([N+](=O)[O-])cc1[N+](=O)[O-])c1ccc(-c2ccccc2)cc1 [fragment 37, 2,4-Dinitrophenyl [1,1′-biphenyl]-4-carboxylate]
isoTOP-ABPP ratio (R) at liganded lysine Q6NZI2_K326 ([1]; 50 uM, in vitro): 20.0

O=C(CCc1ccc2c(c1)OCO2)Oc1ccc([N+](=O)[O-])cc1[N+](=O)[O-] [fragment 45, 2,4-Dinitrophenyl 3-(benzo[d][1,3]dioxol-5-yl)propanoate]
isoTOP-ABPP ratio, lysine Q6NZI2_K326 ([1]; 50 uM_231_sol_in vitro): 0.9

CC(C)(C)OC(=O)NCCCC(=O)Oc1ccc([N+](=O)[O-])cc1[N+](=O)[O-] [fragment 41, 2,4-Dinitrophenyl 4-((tert-butoxycarbonyl)amino)butanoate]
isoTOP-ABPP ratio (R) at liganded lysine P11586_K760 [2]: 4.2

Cn1cc(CC(=O)Oc2ccc([N+](=O)[O-])cc2[N+](=O)[O-])c2ccccc21 [fragment 32, 2,4-Dinitrophenyl 2-(1-methyl-1H-indol-3-yl)acetate]
isoTOP-ABPP reactivity ratio at lysine P11586_K760 [2]: 0.6

O=C(Oc1ccc([N+](=O)[O-])cc1[N+](=O)[O-])c1ccc(Oc2ccccc2)cc1 [fragment 39, 2,4-Dinitrophenyl 4-phenoxybenzoate]
isoTOP-ABPP ratio (R) at liganded lysine Q6NZI2_K326 ([1]; 50 uM, in vitro): 0.8
